ChEMBL document CHEMBL4616727, “Characterization of Conformationally Constrained Benzanilide Scaffolds for Potent and Selective HDAC8 Targeting” (J Med Chem, 2020)

How the values were obtained:
[1] = Half life in CD1 mouse at 100 mg/kg, ip measured after 5 mins to 12 hrs by LC-MS/MS analysis; format: ADME, organism-based; conditions: in vivo
[2] = Cmax in CD1 mouse at 100 mg/kg, ip measured after 5 mins to 12 hrs by LC-MS/MS analysis; format: ADME, organism-based; design: dose 100 mg/kg, route intraperitoneal; conditions: in vivo
[3] = AUClast in CD1 mouse at 100 mg/kg, ip measured after 5 mins to 12 hrs by LC-MS/MS analysis; format: ADME, organism-based; design: time upper 12 hr, time lower 0.083 hr, dose 100 mg/kg, route intraperitoneal; conditions: in vivo
[4] = MRT in CD1 mouse at 100 mg/kg, ip measured after 5 mins to 12 hrs by LC-MS/MS analysis; format: ADME, organism-based; conditions: in vivo
[5] = Effective permeability at pH 7.4 by PAMPA method; format: ADME
[6] = Effective permeability assessed as drug recovery at pH 7.4 by PAMPA method; format: ADME; conditions: read-out: Drug recovery
BE(2)-C = assay: Inhibition of colony formation in human BE(2)-C cells
Histone deacetylase 4 = Histone deacetylase 4 (Homo sapiens, UniProt P56524); assay: Inhibition of C-terminal GST-tagged human HDAC4 (101 to 1084 resides) expressed in baculovirus expression system using FAM-RHKK(TF-Ac)-NH2 substrate incubated for […] by EMSA method
Chain of Histone deacetylase 4 (P56524 whole entry): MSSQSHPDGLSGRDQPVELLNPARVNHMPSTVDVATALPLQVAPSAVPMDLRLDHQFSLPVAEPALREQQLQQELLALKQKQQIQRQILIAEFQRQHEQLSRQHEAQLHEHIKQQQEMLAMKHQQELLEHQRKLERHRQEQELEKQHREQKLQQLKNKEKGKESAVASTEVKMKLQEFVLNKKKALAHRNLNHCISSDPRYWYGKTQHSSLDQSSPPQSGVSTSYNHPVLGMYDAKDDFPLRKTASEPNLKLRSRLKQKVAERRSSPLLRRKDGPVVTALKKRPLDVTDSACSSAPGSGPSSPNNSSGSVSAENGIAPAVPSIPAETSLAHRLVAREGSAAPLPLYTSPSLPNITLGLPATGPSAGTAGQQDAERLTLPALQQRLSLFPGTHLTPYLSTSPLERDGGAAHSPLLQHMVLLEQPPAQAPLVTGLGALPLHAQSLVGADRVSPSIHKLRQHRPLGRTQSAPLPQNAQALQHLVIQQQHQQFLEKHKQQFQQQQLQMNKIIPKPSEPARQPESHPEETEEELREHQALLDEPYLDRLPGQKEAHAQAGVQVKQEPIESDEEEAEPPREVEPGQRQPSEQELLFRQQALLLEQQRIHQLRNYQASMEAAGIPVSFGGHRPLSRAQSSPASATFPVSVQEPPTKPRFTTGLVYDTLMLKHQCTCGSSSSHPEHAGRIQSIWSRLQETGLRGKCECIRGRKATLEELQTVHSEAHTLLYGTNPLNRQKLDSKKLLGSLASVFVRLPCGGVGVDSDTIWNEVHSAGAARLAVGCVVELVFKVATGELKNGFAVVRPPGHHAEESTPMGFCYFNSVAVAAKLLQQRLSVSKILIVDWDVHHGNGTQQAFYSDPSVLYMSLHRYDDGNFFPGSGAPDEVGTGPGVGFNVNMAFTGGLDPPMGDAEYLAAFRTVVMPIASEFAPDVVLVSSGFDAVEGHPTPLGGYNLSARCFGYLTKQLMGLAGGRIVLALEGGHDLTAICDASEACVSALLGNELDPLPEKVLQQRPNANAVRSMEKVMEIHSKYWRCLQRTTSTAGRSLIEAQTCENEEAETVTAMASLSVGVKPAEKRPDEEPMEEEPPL

Histone deacetylase 5 = Histone deacetylase 5 (Homo sapiens, UniProt Q9UQL6); assay: Inhibition of N-terminal GST-tagged full length human HDAC5 expressed in baculovirus expression system using FAM-RHKK(TF-Ac)-NH2 substrate incubated for 2 hrs by EMSA method
Chain of Histone deacetylase 5 (Q9UQL6 whole entry): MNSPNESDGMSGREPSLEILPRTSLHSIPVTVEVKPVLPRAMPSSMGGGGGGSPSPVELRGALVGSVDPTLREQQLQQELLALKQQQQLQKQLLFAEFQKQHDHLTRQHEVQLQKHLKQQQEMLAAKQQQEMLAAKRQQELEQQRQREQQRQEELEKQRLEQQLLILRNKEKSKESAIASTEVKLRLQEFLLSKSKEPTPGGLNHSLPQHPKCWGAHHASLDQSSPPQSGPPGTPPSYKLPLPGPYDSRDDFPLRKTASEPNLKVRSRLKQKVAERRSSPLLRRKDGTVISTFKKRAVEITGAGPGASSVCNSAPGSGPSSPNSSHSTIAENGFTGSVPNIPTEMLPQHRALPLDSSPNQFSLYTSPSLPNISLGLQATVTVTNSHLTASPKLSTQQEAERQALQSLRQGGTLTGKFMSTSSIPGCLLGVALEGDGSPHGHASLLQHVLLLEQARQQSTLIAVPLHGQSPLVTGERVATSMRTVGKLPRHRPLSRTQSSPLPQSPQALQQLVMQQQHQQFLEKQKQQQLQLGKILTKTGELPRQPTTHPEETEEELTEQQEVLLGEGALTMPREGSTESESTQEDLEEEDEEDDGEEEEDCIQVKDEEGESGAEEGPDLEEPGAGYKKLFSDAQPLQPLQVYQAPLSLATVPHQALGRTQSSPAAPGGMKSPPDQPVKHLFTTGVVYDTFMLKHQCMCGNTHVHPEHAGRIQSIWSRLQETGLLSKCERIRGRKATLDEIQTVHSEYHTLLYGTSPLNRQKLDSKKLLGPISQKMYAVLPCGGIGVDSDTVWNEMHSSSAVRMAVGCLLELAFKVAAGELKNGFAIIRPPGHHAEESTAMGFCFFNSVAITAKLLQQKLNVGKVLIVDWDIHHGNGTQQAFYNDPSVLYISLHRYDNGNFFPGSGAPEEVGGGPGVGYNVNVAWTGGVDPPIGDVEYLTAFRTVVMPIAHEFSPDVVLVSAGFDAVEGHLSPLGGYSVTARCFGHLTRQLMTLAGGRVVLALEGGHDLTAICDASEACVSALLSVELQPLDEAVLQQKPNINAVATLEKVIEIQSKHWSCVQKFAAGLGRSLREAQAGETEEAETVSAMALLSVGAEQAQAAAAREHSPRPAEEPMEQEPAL

Histone deacetylase 7 = target: T1, Histone deacetylase 7 (Homo sapiens, UniProt Q8WUI4); assay: Inhibition of N-terminal GST-tagged human HDAC7 (518 to end residues) expressed in baculovirus expression system using FAM-RHKK(TF-Ac)-NH2 substrate incubated for 3 hrs by EMSA method
T1 sequence (Q8WUI4 whole entry): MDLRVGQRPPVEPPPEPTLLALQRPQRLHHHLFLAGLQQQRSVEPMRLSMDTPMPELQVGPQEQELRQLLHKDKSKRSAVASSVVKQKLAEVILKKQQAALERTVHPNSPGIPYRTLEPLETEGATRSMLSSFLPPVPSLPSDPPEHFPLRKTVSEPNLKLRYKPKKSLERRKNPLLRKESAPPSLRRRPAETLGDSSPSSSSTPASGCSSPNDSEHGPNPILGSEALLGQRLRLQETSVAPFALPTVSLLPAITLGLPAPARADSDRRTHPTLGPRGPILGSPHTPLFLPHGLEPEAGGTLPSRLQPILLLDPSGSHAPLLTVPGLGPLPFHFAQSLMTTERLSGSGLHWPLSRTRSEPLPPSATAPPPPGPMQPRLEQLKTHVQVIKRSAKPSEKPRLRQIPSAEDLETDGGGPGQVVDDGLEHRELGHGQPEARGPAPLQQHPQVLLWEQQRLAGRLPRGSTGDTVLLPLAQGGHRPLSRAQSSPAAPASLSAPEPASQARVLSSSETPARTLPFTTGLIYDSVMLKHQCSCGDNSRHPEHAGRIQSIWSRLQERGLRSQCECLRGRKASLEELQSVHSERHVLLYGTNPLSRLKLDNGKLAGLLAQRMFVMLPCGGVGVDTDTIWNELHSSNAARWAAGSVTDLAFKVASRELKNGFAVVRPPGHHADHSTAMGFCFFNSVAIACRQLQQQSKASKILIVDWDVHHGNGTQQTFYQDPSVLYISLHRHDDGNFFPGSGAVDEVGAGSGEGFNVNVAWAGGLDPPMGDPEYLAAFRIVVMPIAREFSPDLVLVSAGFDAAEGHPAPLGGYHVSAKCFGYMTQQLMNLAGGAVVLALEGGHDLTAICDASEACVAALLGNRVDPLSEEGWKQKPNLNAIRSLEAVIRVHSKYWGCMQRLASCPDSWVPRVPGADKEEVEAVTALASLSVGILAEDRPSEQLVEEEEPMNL

[7] = target: T2, Polyamine deacetylase HDAC10 (Homo sapiens, UniProt Q969S8); assay: Inhibition of N-terminal His-tagged full length human HDAC10 expressed in baculovirus expression system using FAM-TSRHK(Ac)KL-NH2 substrate incubated for 17 hrs by EMSA method
T2 sequence (Q969S8 whole entry): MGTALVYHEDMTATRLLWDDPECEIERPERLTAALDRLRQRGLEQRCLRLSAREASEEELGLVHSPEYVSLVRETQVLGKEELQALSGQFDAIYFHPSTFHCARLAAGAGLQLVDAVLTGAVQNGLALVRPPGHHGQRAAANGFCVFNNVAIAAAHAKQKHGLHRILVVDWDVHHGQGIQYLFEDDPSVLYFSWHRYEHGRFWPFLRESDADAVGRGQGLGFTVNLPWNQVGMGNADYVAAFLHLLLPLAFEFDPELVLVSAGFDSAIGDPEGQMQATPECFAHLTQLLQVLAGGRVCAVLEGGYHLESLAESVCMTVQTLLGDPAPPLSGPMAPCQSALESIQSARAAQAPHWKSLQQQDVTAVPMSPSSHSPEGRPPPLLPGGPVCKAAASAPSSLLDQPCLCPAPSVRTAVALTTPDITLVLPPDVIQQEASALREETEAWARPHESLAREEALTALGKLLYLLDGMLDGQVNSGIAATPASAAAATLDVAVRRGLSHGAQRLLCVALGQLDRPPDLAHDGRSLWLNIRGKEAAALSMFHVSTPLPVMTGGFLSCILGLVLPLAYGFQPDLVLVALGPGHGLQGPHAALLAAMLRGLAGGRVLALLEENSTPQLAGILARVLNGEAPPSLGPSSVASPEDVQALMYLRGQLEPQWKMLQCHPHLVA

Histone deacetylase 9 = Histone deacetylase 9 (Homo sapiens, UniProt Q9UKV0); assay: Inhibition of C-terminal His-tagged human HDAC9 (604 to 1066residues) expressed in baculovirus expression system using […] substrate incubated for 3 hrs by EMSA method
Chain of Histone deacetylase 9 (Q9UKV0 whole entry): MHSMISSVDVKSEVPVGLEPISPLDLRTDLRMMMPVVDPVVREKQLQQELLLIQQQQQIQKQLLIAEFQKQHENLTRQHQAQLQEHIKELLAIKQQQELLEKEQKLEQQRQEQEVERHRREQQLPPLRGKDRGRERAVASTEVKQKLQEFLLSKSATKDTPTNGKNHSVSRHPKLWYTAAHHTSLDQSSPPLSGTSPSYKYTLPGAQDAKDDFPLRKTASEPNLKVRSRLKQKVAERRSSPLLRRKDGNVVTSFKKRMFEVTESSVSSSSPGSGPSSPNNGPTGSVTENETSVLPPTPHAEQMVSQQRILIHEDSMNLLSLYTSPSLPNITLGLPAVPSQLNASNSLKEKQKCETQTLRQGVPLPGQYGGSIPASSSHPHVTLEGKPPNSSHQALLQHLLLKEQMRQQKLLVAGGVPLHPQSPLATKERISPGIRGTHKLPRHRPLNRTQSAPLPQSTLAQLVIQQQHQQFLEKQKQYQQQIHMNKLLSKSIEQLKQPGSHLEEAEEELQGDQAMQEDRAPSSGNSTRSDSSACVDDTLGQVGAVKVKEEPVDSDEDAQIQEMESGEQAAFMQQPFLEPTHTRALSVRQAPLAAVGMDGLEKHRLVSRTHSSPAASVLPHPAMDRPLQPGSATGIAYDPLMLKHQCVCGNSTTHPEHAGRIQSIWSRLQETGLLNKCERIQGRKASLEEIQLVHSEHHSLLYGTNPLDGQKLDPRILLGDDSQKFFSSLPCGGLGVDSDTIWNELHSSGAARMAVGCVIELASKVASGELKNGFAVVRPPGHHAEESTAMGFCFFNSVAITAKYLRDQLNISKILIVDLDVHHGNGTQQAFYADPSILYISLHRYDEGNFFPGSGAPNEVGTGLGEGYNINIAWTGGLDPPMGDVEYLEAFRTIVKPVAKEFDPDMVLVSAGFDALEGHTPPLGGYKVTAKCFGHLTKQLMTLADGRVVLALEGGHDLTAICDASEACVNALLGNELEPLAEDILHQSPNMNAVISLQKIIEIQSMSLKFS

half-life [1] [h] | Cmax [2] [µM] | AUC(0-t) [3] [ng·h/mL] | MRT [4] [h] | log(permeability) [5] | recovery [6] [%] | IC50 (BE(2)-C) [µM] | IC50 (Histone deacetylase 4) [µM] | IC50 (Histone deacetylase 5) [µM] | IC50 (Histone deacetylase 7) [µM] | IC50 [7] [µM] | IC50 (Histone deacetylase 9) [µM] | Compound
3.3 | 57.6 | 6950 | 0.45 |  |  |  |  |  |  |  |  | COc1ccc(Cn2ccc3ccc(C(=O)NO)cc32)cc1
 |  |  | 2.77 | -5.7 | 102 | 2.1 |  |  |  |  |  | CC(C)(C)c1cccc(C(=O)N(CC2CC2)c2ccc(C(=O)NO)cc2)c1
 |  |  |  | -5.42 | 95.4 |  | > 10 | > 10 | > 10 | > 10 | > 10 | CC(C)N(C(=O)c1cc(C(F)(F)F)cc(C(F)(F)F)c1)c1ccc(C(=O)NO)cc1
 |  |  | 3 | -5.8 | 102 |  |  |  |  |  |  | CC(C)N(C(=O)c1cccc(OC(F)(F)F)c1)c1ccc(C(=O)NO)cc1
